Reference: US11040016B2, “Composition for alleviating, preventing or treating female menopausal symptoms, containing, as active ingredient, pinitol, D-chiro-inositol or analog compounds thereof” (DY NATURAL CO., LTD, priority 2016, dated 2021)

Columns and labels:
17β-estradiol [1] = assay: 17β-estradiol level in the blood of white rats after 8 weeks oral administration (ELISA); format: in vivo, Sprague-Dawley (SD) white rats; settings: female SD rats, 10, 20, 40 mg/kg oral once a day for 8 weeks, vs physiological saline
Procedure: Pinitol and D-chiro-inositol were purchased from Biosearch Life (Camino de Purchil, 66. 18004 Granada, Spain). Six-month-old female Sprague-Dawley (SD) white rats (Orient, Korea) were divided into a test group administered with pinitol or D-chiro-inositol and a control group administered with physiological saline while ten animals were used in the test for each of the groups. The rats were bred in a breeding room controlled under a temperature of 22±1° C., humidity of 55±1%, and 12-hour light/dark cycle. The rats were given free access to food and water, and for 7 days after entrance, the rats were acclimated for the breeding environment, and then were used for tests. Physiological saline and pinitol or D-chiro-inositol were orally administered at various doses (10 mg/kg, 20 mg/kg, or 40 mg/kg) at the same amount once a day for 8 weeks. […] The levels of hormones and proteins in the blood were measured according to the manufacturer's manual by using the ELISA kit (Enzo Life Sciences, U.S.A.) for measurement of 17β-estradiol or sex-hormone binding globulin (SHBG) in the blood. […] After the completion of the last administration, the 17β-estradiol and sex-hormone binding globulin (SHBG) levels in the blood were measured by ELISA kit. […]

middle-aged women = assay: Menopause Rating Scale (MRS) survey in middle-aged women; format: in vivo; settings: for alleviation rate of menopausal symptoms: MRS vs placebo; for MRS score post-taking compared with placebo taking group and pre-taking: middle-aged women, 600, 1,200, 2,400 mg once a day for 8 weeks
Procedure: Forty middle-aged women aged 40 or more were divided into four groups each having ten women, and the four groups were designated as a control group taking a placebo and three test groups taking pinitol. Similarly, forty middle-aged women aged 40 or more were divided into four groups each having ten women, and the four groups were designated as a control group taking a placebo and three test groups taking D-chiro-inositol. Thereafter, the placebo, pinitol, or D-chiro-inositol was administered at various concentrations for 8 weeks in a double-blind fashion. The pinitol, D-chiro-inositol, or placebo was administered at 600 mg, 1,200 mg, and 2,400 mg a day. The blood was taken from the arm vein at the same time, 2:00 pm, before intake and after the last intake, and then transferred to heparinized tubes, followed by centrifugation at 2,500 rpm (4° C.) for 15 minutes, and therefore, the plasma was separated by transfer to new tubes. The separated plasma was used to measure sex hormone levels in the blood. Since subjective symptoms account for a large proportion of menopausal symptoms, several measures are used to assess the degrees of menopausal clinical symptoms. For assessment of menopausal clinical symptoms, Kupperman's index has been used for a long time. However, questions of vaginal dryness, reduction of sexual desire, and the like, are missing in the Kupperman's index, and therefore, the Menopause Rating Scale (MRS) and the Menopause-Specific Quality of Life Questionnaire (MENQOL), which are questionnaires supplementing such questions, are being widely used in current clinical trials. The MRS has been globally recognized to have reliability and feasibility due to its advantages of having a small number of questions, a total of 11 questions, and being simple and convenient, and thus the MRS is being recited in many studies (Table 1). In the present invention, the severity of menopausal symptoms was measured and analyzed by allowing the above middle-aged women clinical subjects to fill out the MRS questionnaire. The alleviating effects on female menopause symptoms were assessed by allowing the middle-aged women clinical subjects to fill out the Menopause Rating Scale (MRS) questionnaire pre- and post-intake of the placebo, pinitol, or D-chiro-inositol. [table] In order to assess the alleviating effects of female menopause symptoms by pinitol and D-chiro-inositol, a Korean-version Menopause Rating Scale (MRS) survey was performed. Eighty middle-aged 40 or more were divided into four groups, a placebo group and pinitol administration groups, each having ten women, and similarly, were divided into four groups, a placebo group and D-chiro-inositol administration groups, each having ten women. Thereafter, the placebo and 600 mg, 1,200 mg, and 2,400 mg of pinitol or D-chiro-inositol were administered once a day for 8 weeks in a double-blind fashion. The women were allowed to fill out the Menopause Rating Scale (MRS) questionnaire before and after taking the placebo, pinitol, or D-chiro-inositol. The scores of the MRS questionnaire were calculated as a total score. The 0-4 points indicate a good menopausal state, which is a smooth menopause state. A total of 5-8 points indicate a slight menopausal state, requiring management. A total of 9-15 points indicate a severe menopausal state, requiring precise diagnosis and treatment by specialists because of menopausal diseases. Last, a total of 16 points or more indicates an extremely severe menopausal state, thereby urgently requiring therapy through minute management and long-term plans. […] The MRS measurement results could confirm that pinitol alleviated female menopause symptoms caused by female hormone reduction, such as reduction of sexual desire, insomnia, urogenital diseases and infections, joint and muscular diseases, depression, and hypersensitiveness.

17β-estradiol [2] = assay: 17β-estradiol level in the blood of middle-aged women after 8 weeks administration (ELISA); format: in vivo; settings: middle-aged women, 600, 1,200, 2,400 mg a day for 8 weeks
Procedure: (§1) Forty middle-aged women aged 40 or more were divided into four groups each having ten women, and the four groups were designated as a control group taking a placebo and three test groups taking pinitol. Similarly, forty middle-aged women aged 40 or more were divided into four groups each having ten women, and the four groups were designated as a control group taking a placebo and three test groups taking D-chiro-inositol. Thereafter, the placebo, pinitol, or D-chiro-inositol was administered at various concentrations for 8 weeks in a double-blind fashion. The pinitol, D-chiro-inositol, or placebo was administered at 600 mg, 1,200 mg, and 2,400 mg a day. The blood was taken from the arm vein at the same time, 2:00 pm, before intake and after the last intake, and then transferred to heparinized tubes, followed by centrifugation at 2,500 rpm (4° C.) for 15 minutes, and therefore, the plasma was separated by transfer to new tubes. The separated plasma was used to measure sex hormone levels in the blood. The levels of hormones and proteins in the blood were measured according to the manufacturer's manual by using the ELISA kit (Enzo Life Sciences, U.S.A.) for measurement of 17β-estradiol or sex-hormone binding globulin (SHBG) in the blood. In order to analyze the effects of pinitol and D-chiro-inositol on sex hormones in middle-aged women, forty middle-aged 40 or more were divided into four groups each having ten women, and the four groups were designated as a control group taking a placebo and three test groups taking pinitol. Similarly, forty middle-aged women aged 40 or more were divided into four groups each having ten women, and the four groups were designated as a control group taking a placebo and three test groups taking D-chiro-inositol. Thereafter, the placebo, pinitol, or D-chiro-inositol was administered at various concentrations for 8 weeks in a double-blind fashion. The pinitol or D-chiro-inositol was administered at 600 mg, 1,200 mg, and 2,400 mg a day for 8 weeks. As a result of the test, there was no significant change in 17β-estradiol level in the blood in the women between pre- and pro-administration of the placebo. […] According to the test results, it could be confirmed that, similar to the results in the white rats, pinitol and D-chiro-inositol can alleviate female menopause symptoms by increasing the 17β-estradiol levels in the blood and decreasing the SHBG levels in the blood.

[3] = tested on: sex-hormone binding globulin (SHBG); assay: SHBG level in the blood of middle-aged women after 8 weeks administration (ELISA); format: in vivo
Procedure: as §1, with “The pinitol, D-chiro-inositol, or placebo was administered at 600 mg, 1,200 mg, and 2,400 mg a day.” left out, “The pinitol or D-chiro-inositol was administered at 600 mg, 1,200 mg, and 2,400 mg a day for 8 weeks.” left out

[4] = tested on: sex-hormone binding globulin (SHBG); assay: SHBG level in the blood of white rats after 8 weeks oral administration (ELISA); format: in vivo, Sprague-Dawley (SD) white rats; settings: female SD rats
Procedure: Pinitol and D-chiro-inositol were purchased from Biosearch Life (Camino de Purchil, 66. 18004 Granada, Spain). Six-month-old female Sprague-Dawley (SD) white rats (Orient, Korea) were divided into a test group administered with pinitol or D-chiro-inositol and a control group administered with physiological saline while ten animals were used in the test for each of the groups. The rats were bred in a breeding room controlled under a temperature of 22±1° C., humidity of 55±1%, and 12-hour light/dark cycle. The rats were given free access to food and water, and for 7 days after entrance, the rats were acclimated for the breeding environment, and then were used for tests. Physiological saline and pinitol or D-chiro-inositol were orally administered at various doses (10 mg/kg, 20 mg/kg, or 40 mg/kg) at the same amount once a day for 8 weeks. After the last oral administration, the rats were fasted overnight and then anesthetized with ether, and the abdomen was cut open, and then blood was collected from the abdominal vein. The collected blood was transferred to a heparinized tube, followed by centrifugation at 2.500 rpm for 15 minutes for 4° C., thereby separating serum and plasma. The separated blood was stored at −80° C. until the next test. The levels of hormones and proteins in the blood were measured according to the manufacturer's manual by using the ELISA kit (Enzo Life Sciences, U.S.A.) for measurement of 17β-estradiol or sex-hormone binding globulin (SHBG) in the blood. In order to analyze the effects of pinitol or D-chiro-inositol (DCI) on the levels or activity of female hormones, which are blood indexes associated with menopausal symptoms, in female mature Sprague-Dawley (SD) white rats, a test was conducted. The physiological saline for the control group or pinitol or D-chiro-inositol (10 mg/kg, 20 mg/kg, and 40 mg/kg) for the test groups were orally administered at the predetermined time once a day for 8 weeks. After the completion of the last administration, the 17β-estradiol and sex-hormone binding globulin (SHBG) levels in the blood were measured by ELISA kit. […] Therefore, it could be confirmed that the SHBG level in the blood was decreased by pinitol or D-chiro-inositol, leading to increases in activity of female hormones. According to the test results, it was confirmed that both pinitol and D-chiro-inositol can alleviate female menopause symptoms by increasing the 17β-estradiol levels in the blood and decreasing the SHBG levels in the blood.

[5] = middle-aged women, 600 mg once a day for 8 weeks
[6] = middle-aged women, 1,200 mg once a day for 8 weeks
[7] = middle-aged women, 2,400 mg once a day for 8 weeks
[8] = middle-aged women, 600 mg a day for 8 weeks
[9] = middle-aged women, 1,200 mg a day for 8 weeks
[10] = middle-aged women, 1,400 mg administration group, 8 weeks
[11] = 10 mg/kg oral once a day for 8 weeks
[12] = 20 mg/kg oral once a day for 8 weeks
[13] = 40 mg/kg oral once a day for 8 weeks

SMILES | 17β-estradiol level in the blood compared with control group (17β-estradiol [1]) | decrease of average MRS score compared with placebo group (middle-aged women; [5]) [points] | alleviation rate of menopausal symptoms (middle-aged women; [5]) | decrease of average MRS score compared with placebo group (middle-aged women; [6]) [points] | alleviation rate of menopausal symptoms (middle-aged women; [6]) [%] | decrease of average MRS score compared with placebo group (middle-aged women; [7]) [points] | alleviation rate of menopausal symptoms (middle-aged women; [7]) [%] | MRS score post-taking compared with placebo taking group and pre-taking (middle-aged women) | 17β-estradiol level in the blood compared with placebo administration group (17β-estradiol [2]) | 17β-estradiol level in the blood, pre- versus post-administration (17β-estradiol [2]) | decrease of SHBG level in the blood compared with placebo administration group [3, 8] | decrease of SHBG level in the blood compared with placebo administration group [3, 9] [nmol/L] | decrease of SHBG level in the blood compared with placebo administration group [3, 10] [nmol/L] | decrease of SHBG level in the blood compared with control group [4, 11] | decrease of SHBG level in the blood compared with control group [4, 12] [nmol/L] | decrease of SHBG level in the blood compared with control group [4, 13] [nmol/L] | SHBG level in the blood, pre- versus post-administration ([3]; middle-aged women, 8 weeks)
O[C@H]1[C@H](O)[C@H](O)[C@@H](O)[C@H](O)[C@H]1O [D-chiro-inositol] | significantly increased in a concentration-dependent manner | 5.7 | about 40.7% | 9.7 | ~69.3 | 10.3 | ~73.6 | significantly decreased | significantly increased in a concentration-dependent manner | no particular difference | about 8.7 nmol/L | ~15.9 | ~18.4 | about 7.0 nmol/L | ~16.2 | ~21.1 | 
CO[C@H]1[C@H](O)[C@@H](O)[C@@H](O)[C@H](O)[C@@H]1O [pinitol] | significantly increased in a concentration-dependent manner | 4.3 | about 32.6% | 8.4 | ~63.6 | 9.1 | ~68.9 | significantly decreased | significantly increased in a concentration-dependent manner | no particular difference | about 8.3 nmol/L | ~16.0 | ~18.6 | about 4.2 nmol/L | ~10.0 | ~12.2 | no particular difference
